We go through two molecules from PubChem BioAssay (NCI).

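How tested: cells in 96-well plates exposed to compound for 48 hours at five concentrations. GI50: concentration for 50% inhibition of growth. At the TGI there is no net growth.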

Some test systems named below: CAKI-1 renal; HCT-15 colon; HL-60(TB) leukemia; HS 578T breast; HT29 colon; IGROV1 ovarian; KM12 colon; SF-539 CNS; SK-MEL-28 melanoma; U251 CNS.
Test in all cases: DTP human tumour cell line panel, 48 h

A word on the GI50: it is the concentration that inhibits growth by half. Usually TGI stands for the concentration at which net growth stops. Read a high TGI as less potent growth arrest. As for `CC1(C)CCC(c2ccc(Cl)cc2)=C(CN2CCN(c3ccc(C(=O)NS(=O)(=O)c4ccc(N[C@H](CCN5CCOCC5)CSc5ccccc5)c(S(=O)(=O)C(F)(F)F)c4)cc3)CC2)C1`, the GI50 in the experiment with CAKI-1 renal is 1.72 µM; in the experiment with HCT-15 colon, 2.02 µM; in the experiment on HL-60(TB) leukemia, 0.568 µM; with HS 578T breast, 2.66 µM; with HT29 colon it was 1.91 µM; with IGROV1 ovarian, 2.37 µM. The GI50 with KM12 colon is 1.72 µM; in the experiment on SF-539 CNS, 2.08 µM; with SK-MEL-28 melanoma, 1.74 µM; in the experiment with U251 CNS, 1.9 µM. The TGI was 4.09 µM in the experiment with CAKI-1 renal; 4.35 µM in the experiment with HCT-15 colon; 3.84 µM in the experiment on HL-60(TB) leukemia; > 24.5 µM in the experiment on HS 578T breast; 3.97 µM in the experiment with HT29 colon; 5.25 µM in the experiment with IGROV1 ovarian. Also, the total growth inhibition concentration (TGI) in the experiment on KM12 colon came out at 3.42 µM; in the experiment on SF-539 CNS it was 4.22 µM; with SK-MEL-28 melanoma, 3.22 µM; in the experiment with U251 CNS, 3.43 µM.
With `C=C(C)[C@@H]1CC[C@]2(C(=O)OC)CC[C@]3(C)[C@H](CC[C@@H]4[C@@]5(C)CC/C(=N\OCCC(=NCCC#N)NOCCC#N)C(C)(C)[C@@H]5CC[C@]43C)[C@@H]12`, the GI50 in the experiment with CAKI-1 renal is 10.2 µM; with HCT-15 colon it was 5.77 µM; in the experiment with HL-60(TB) leukemia it was 5.18 µM; with HS 578T breast, 30.2 µM; with HT29 colon it was 6.7 µM; in the experiment on IGROV1 ovarian, 14.9 µM. In addition, the GI50 was 9.35 µM with KM12 colon, 11 µM in the experiment on SF-539 CNS, 17.1 µM in the experiment on SK-MEL-28 melanoma and 4.3 µM with U251 CNS. The TGI in the experiment with CAKI-1 renal was > 50 µM; in the experiment on HCT-15 colon, > 50 µM; in the experiment on HL-60(TB) leukemia, 24.9 µM; with HS 578T breast, > 50 µM; in the experiment with HT29 colon it was 26.2 µM; with IGROV1 ovarian, > 50 µM. Further, the TGI was > 50 µM with KM12 colon, > 50 µM with SF-539 CNS, > 50 µM in the experiment with SK-MEL-28 melanoma and 12.4 µM in the experiment on U251 CNS.
